# Publication PMC10787790, “Isatin-tethered halogen-containing acylhydrazone derivatives as monoamine oxidase inhibitor with neuroprotective effect” (Scientific Reports, 2024)
# Experiments:
# [1] = target: T1, MAO-A (Homo sapiens, UniProt P21397); assay: MAO-A inhibition assay (continuous, kynuramine); settings: for remaining activity at 10 µM: read-out: Residual activity at 10 µM (%) MAO-A
# T1 sequence (P21397 1-527): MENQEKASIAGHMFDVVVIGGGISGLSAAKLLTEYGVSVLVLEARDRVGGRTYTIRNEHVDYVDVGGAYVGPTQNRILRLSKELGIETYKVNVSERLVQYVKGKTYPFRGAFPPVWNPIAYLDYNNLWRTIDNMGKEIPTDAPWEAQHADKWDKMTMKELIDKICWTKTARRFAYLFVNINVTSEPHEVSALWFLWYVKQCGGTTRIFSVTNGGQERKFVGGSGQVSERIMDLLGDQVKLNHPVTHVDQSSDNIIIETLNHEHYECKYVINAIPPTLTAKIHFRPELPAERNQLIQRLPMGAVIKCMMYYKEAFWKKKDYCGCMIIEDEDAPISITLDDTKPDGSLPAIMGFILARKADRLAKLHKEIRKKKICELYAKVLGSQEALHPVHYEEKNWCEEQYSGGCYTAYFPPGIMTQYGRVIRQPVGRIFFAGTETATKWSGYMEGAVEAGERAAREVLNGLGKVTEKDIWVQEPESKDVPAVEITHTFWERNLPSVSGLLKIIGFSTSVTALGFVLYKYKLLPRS
# [2] = target: T2, MAO-B (Homo sapiens, UniProt P27338); assay: MAO-B inhibition assay (continuous, benzylamine); settings: for SI (selectivity index): (IC50 of MAO-A)/(IC50 of MAO-B), MAO-B compared to MAO-A; for remaining activity at 10 µM: read-out: Residual activity at 10 µM (%) MAO-B
# T2 sequence (P27338 1-520): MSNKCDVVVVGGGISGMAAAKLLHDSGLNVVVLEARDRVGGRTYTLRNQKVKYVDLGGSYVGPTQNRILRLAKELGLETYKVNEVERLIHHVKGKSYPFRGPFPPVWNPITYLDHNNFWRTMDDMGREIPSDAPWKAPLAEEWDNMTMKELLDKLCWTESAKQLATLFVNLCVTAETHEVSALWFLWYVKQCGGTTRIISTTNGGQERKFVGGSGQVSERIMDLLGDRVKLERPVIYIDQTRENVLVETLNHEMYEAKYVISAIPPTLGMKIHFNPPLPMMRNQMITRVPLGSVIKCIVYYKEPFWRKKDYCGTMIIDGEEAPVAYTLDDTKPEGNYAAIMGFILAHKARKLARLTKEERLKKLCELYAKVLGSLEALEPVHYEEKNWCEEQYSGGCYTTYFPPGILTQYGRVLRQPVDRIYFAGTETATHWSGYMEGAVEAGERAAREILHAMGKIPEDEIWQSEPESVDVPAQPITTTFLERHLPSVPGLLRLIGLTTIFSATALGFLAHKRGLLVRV
# [3] = Parallel artificial membrane permeability assay (PAMPA), BBB; assay type: in vitro ADME; settings: for Experimental Pe: pH 7.4; for Papp: pH 7.4, read-out: Experimental Pe
# Procedure: The blood–brain barrier (BBB) permeation abilities of the four lead molecules were analyzed using the PAMPA method[44],[45]. The detailed procedure is explained in the Supplementary Data.
# Using a microtiter plate with 96 wells and a Millipore filter plate with 96 wells (ipvh, 125 μm thick filter, 0.45 μm pore), which was then saturated with 0.1 mL of n-dodecane, a "sandwich" structure was created in PAMPA. Stock solutions of drug samples in DMSO were created at a 10 mM concentration. The stock solution was diluted in buffer at pH 7.4 before being added to a 96-well filter plate in order to achieve a final sample concentration (0.01, 0.1, and 1 mM) and keep the DMSO concentration at 1% (v/v). The final dilutions were divided into 270 μL for the donor wells and 200 μL of pH 7.4 buffer for the acceptor well. The donor plate was placed on the top of the acceptor filter plate to form a sandwich (comprising of a synthetic lipid membrane in the center, an aqueous receiver on […], and an aqueous donor carrying an analyte on the bottom.). The test substance diffuses from the donor well across the lipid membrane and into the acceptor well. The sandwich is said to have been intact when the penetration occurred. The drug concentration in the reference, donor, and receiver wells was measured using UV spectroscopy. The rate of penetration is calculated using the following expression.
# Log Pe = -ln [1-CA /Equilibrium]/A× (1/VD + 1/VA) × t
# [4] = test system: SH-SY5Y cells; assay: MTT cytotoxicity assay; assay type: cell-based, human; settings: 24 h
# [5] = test system: TNF-α; assay: TNF-α expression in LPS-induced SH-SY5Y cells; assay type: cell-based, human
# [6] = test system: IL-6; assay: IL-6 expression in LPS-induced SH-SY5Y cells; assay type: cell-based, human
# [7] = test system: ROS; assay: ROS assay (DCF) in LPS-treated SH-SY5Y cells; assay type: cell-based, human
# [8] = test system: CAT; assay: Catalase (CAT) activity in LPS-induced SH-SY5Y cells; assay type: cell-based, human; settings: 10 µM/mL
# [9] = test system: GPx; assay: Glutathione peroxidase (GPx) activity in LPS-induced SH-SY5Y cells; assay type: cell-based, human; settings: 10 µM/mL
# [10] = test system: SOD; assay: Superoxide dismutase (SOD) activity in LPS-induced SH-SY5Y cells; assay type: cell-based, human; settings: 10 µM/mL
# [11] = target: T2, MAO-B; assay: Enzyme kinetics, Lineweaver-Burk and secondary plots, MAO-B; assay type: biochemical; parameters: purchased Sigma-Aldrich
# [12] = target: T2, MAO-B; assay: Reversibility study by dialysis, MAO-B
# [13] = test system: NF-kB; assay: NF-kB expression in LPS-induced SH-SY5Y cells; settings: LPS 1 µg/mL 2 h, compound 24 h, SH-SY5Y
# [14] = LPS 1 µg/mL 2 h, compound 24 h, SH-SY5Y
compound,measurement,setting,value
O=C1Nc2ccc(Br)cc2/C1=N/NC(=O)c1ccccc1 [IS1],IC50,[1],> 40 µM
same,remaining activity at 10 µM,[1],83.1 ± 2.34%
same,IC50,[2],0.42 ± 0.028 µM
same,SI (selectivity index),[2],> 95.24
same,remaining activity at 10 µM,[2],22 ± 2.75%
O=C1Nc2ccc(Br)cc2/C1=N/NC(=O)c1ccc(Cl)cc1 [IS2],IC50,[1],9.16 ± 0.324 µM
same,remaining activity at 10 µM,[1],46.9 ± 2.73%
same,IC50,[2],0.269 ± 0.004 µM
same,SI (selectivity index),[2],34.03
same,remaining activity at 10 µM,[2],1.18 ± 2.04%
O=C1Nc2ccc(Br)cc2/C1=N/NC(=O)c1ccc(Br)cc1 [IS3],IC50,[1],2.385 ± 0.018 µM
same,remaining activity at 10 µM,[1],29.5 ± 0.34%
same,IC50,[2],0.514 ± 0.023 µM
same,SI (selectivity index),[2],4.64
same,remaining activity at 10 µM,[2],1.04 ± 0.23%
O=C1Nc2ccc(Br)cc2/C1=N/NC(=O)c1ccc(F)cc1 [IS4],IC50,[1],32.85 ± 0.134 µM
same,remaining activity at 10 µM,[1],70.1 ± 1.93%
same,IC50,[2],7.28 ± 1.72 µM
same,SI (selectivity index),[2],4.51
same,remaining activity at 10 µM,[2],42.5 ± 8.93%
O=C1Nc2ccccc2/C1=N/NC(=O)c1ccc(Cl)cc1 [IS6],CNS/BBB permeability in words,[3],high permeability and CNS bioavailability
same,Prediction (CNS permeation class),[3],CNS+ (Pe (10^−6 cm/s) > 4.00: CNS + (high permeation))
same,Experimental Pe,[3],> 4 ×10⁻⁶ cm/s
same,Papp,[3],4.86 ± 0.26 ×10⁻⁶ cm/s
O=C1Nc2ccccc2/C1=N/NC(=O)c1ccc(Br)cc1 [IS7],CNS/BBB permeability in words,[3],high permeability and CNS bioavailability
same,Prediction (CNS permeation class),[3],CNS+ (Pe (10^−6 cm/s) > 4.00: CNS + (high permeation))
same,Experimental Pe,[3],> 4 ×10⁻⁶ cm/s
same,Papp,[3],5.02 ± 0.19 ×10⁻⁶ cm/s
same,Cell viability at 100 μM,[4]; 100 μM,remarkably decreased cell viability
same,IC50,[4]; Homo sapiens,97.2 µM
same,TNF-alpha level vs LPS-treated group,[5]; [14],significantly (p < 0.0001) reduced
same,TNF-alpha level compared to IS13 and IS15,[5]; LPS-treated cell lines,significantly decreased
same,IL-6 level vs LPS-treated group,[6]; [14],significantly (p < 0.0001) reduced
same,IL-6 level compared to IS13 and IS15,[6]; LPS-treated cell lines,significantly decreased
same,DCF intensity decrease at 10 µM,"[7]; 10 µM/mL (10 µM), vs LPS-induced cells",effective DCF intensity decrease
same,DCF expression (ROS) vs cells treated with LPS alone,[7]; LPS-induced SH-SY5Y,significantly inhibited (p < 0.0001)
same,CAT (cellular anti-oxidant enzyme) effect,[8],enhancing the enzyme activity
same,GPx (cellular anti-oxidant enzyme) effect,[9],enhancing the enzyme activity
same,SOD (cellular anti-oxidant enzyme) effect,[10],enhancing the enzyme activity
same,Type of MAO-B inhibition,[11]; LB plot,competitive
same,Ki,[11]; secondary plot of LB slopes vs inhibitor concentration,0.044 ± 0.002 µM
same,"MAO-B relative activity, dialyzed (AD)","[12]; […] IC50, 30 min pre-incubation, dialyzed",72.89%
same,"MAO-B relative activity, undialyzed (AU)","[12]; […] IC50, 30 min pre-incubation, undialyzed",28.65%
same,Reversibility of MAO-B inhibition,[12]; dialysis,reversible-type inhibitors
same,NF-kB level vs LPS-treated group,[13],significantly (p < 0.0001) reduced
same,IC50,[1],19.2 ± 5.96 µM
same,remaining activity at 10 µM,[1],50.8 ± 7.29%
same,IC50,[2],0.082 ± 0.01 µM
same,SI (selectivity index),[2],233.85
same,remaining activity at 10 µM,[2],3.2 ± 0.77%
same,Fold higher MAO-B inhibition than IS5,[2]; relative to basic compound IS5,50.4 ×
O=C1Nc2ccccc2/C1=N/NC(=O)c1ccc(F)cc1 [IS8],IC50,[1],35 µM
same,remaining activity at 10 µM,[1],69.7 ± 3.22%
same,IC50,[2],25.5 ± 2.03 µM
same,remaining activity at 10 µM,[2],67.4 ± 7.8%
O=C1Nc2ccc(F)cc2/C1=N/NC(=O)c1ccccc1 [IS9],IC50,[1],> 40 µM
same,remaining activity at 10 µM,[1],67.4 ± 1%
same,IC50,[2],9.09 ± 1.28 µM
same,remaining activity at 10 µM,[2],45.6 ± 6.28%
O=C1Nc2ccc(F)cc2/C1=N/NC(=O)c1ccc(Cl)cc1 [IS10],IC50,[1],18.3 ± 0.729 µM
same,remaining activity at 10 µM,[1],54.1 ± 0.78%
same,IC50,[2],3.99 ± 0.472 µM
same,SI (selectivity index),[2],4.58
same,remaining activity at 10 µM,[2],42.6 ± 0.82%
O=C1Nc2ccc(F)cc2/C1=N/NC(=O)c1ccc(Br)cc1 [IS11],IC50,[1],13.7 ± 0.396 µM
same,remaining activity at 10 µM,[1],43.56 ± 0.42%
same,IC50,[2],10.6 ± 0.256 µM
same,SI (selectivity index),[2],1.30
same,remaining activity at 10 µM,[2],53.2 ± 2.6%
O=C1Nc2ccc(F)cc2/C1=N/NC(=O)c1ccc(F)cc1 [IS12],IC50,[1],4.29 ± 0.552 µM
same,remaining activity at 10 µM,[1],36.6 ± 1.6%
same,IC50,[2],7.1 ± 0.956 µM
same,SI (selectivity index),[2],0.60
same,remaining activity at 10 µM,[2],44.3 ± 4.48%
O=C1Nc2ccc(Cl)cc2/C1=N/NC(=O)c1ccccc1 [IS13],CNS/BBB permeability in words,[3],high permeability and CNS bioavailability
same,Prediction (CNS permeation class),[3],CNS+ (Pe (10^−6 cm/s) > 4.00: CNS + (high permeation))
same,Experimental Pe,[3],> 4 ×10⁻⁶ cm/s
same,Papp,[3],4.66 ± 0.18 ×10⁻⁶ cm/s
O=C1Nc2ccc(Cl)cc2/C1=N/NC(=O)c1ccc(Cl)cc1 [IS14],IC50,[1],11.3 ± 0.414 µM
same,remaining activity at 10 µM,[1],53.1 ± 0.91%
same,IC50,[2],0.234 ± 0.008 µM
same,SI (selectivity index),[2],48.15
same,remaining activity at 10 µM,[2],23 ± 2.48%
O=C1Nc2ccc(Cl)cc2/C1=N/NC(=O)c1ccc(F)cc1 [IS16],IC50,[1],8.45 ± 0.395 µM
same,remaining activity at 10 µM,[1],43.7 ± 1.65%
same,IC50,[2],3.85 ± 0.392 µM
same,SI (selectivity index),[2],2.20
same,remaining activity at 10 µM,[2],26.1 ± 4.39%
"C#CCN(C)[C@H](C)Cc1ccccc1 [Selegiline, reference compound]",Prediction (CNS permeation class),[3],CNS+ (Pe (10^−6 cm/s) > 4.00: CNS + (high permeation))
